In patent publication US12018016B2, “Aryl sulfonyl (hydroxy) piperidines as CCR6 inhibitors” (CHEMOCENTRYX, INC., priority 2021, dated 2024):

The compounds below were run against T1, human CCR6 (Homo sapiens, UniProt P51684) (assay: Migration assay (chemotaxis, ChemoTX)). Settings: hCCR6-transfected Ba/F3 cells in human serum, migration to recombinant human CCL20 10 nM, 37° C. 45 minutes; read-out: Potency (IC50 value in the migration assay).
T1 construct: expressed in transfected cells; host or cells: Ba/F3 cells (mouse pro-B line)
T1 sequence (P51684 1-374): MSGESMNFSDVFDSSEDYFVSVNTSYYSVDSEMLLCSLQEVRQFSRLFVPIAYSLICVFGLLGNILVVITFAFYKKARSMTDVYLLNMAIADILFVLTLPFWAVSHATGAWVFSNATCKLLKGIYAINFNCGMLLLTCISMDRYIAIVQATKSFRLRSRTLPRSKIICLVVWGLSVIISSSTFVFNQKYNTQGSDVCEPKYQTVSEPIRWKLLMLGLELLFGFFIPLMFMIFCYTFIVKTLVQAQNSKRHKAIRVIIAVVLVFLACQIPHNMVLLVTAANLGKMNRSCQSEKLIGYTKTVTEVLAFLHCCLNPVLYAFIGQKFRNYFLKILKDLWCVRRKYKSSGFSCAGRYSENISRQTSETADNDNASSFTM
Assay type: cell-based
Excerpt: A chemotaxis assay can be used to determine the efficacy of potential receptor antagonists at blocking the migration mediated through chemokine receptors, such as CCR6. This assay is routinely performed using the ChemoTX® microchamber system with a 5-μm pore-sized polycarbonate membrane. Chemokine receptor-expressing cells are required for such an assay. In this case, Ba/F3 cells (Palacios et al., Nature, 309:126, 1984) transfected with the gene for human CCR6 under control of the CMV promotor were used. To begin such an assay, hCCR6-transfected Ba/F3 cells are first grown for 24 hr in medium supplemented with sodium butyrate, which increases CCR6 transcription via the CMV promotor. The prepared Ba/F3 cells, are collected by centrifugation at 400×g at room temperature, then suspended at 4 million/ml in human serum. The compound being tested is serially diluted from a maximum final concentration of 1 μM (or an equivalent volume of its solvent (DMSO)) and is then added to the cell/serum mixture. Separately, recombinant human CCL20 (MIP-3α/LARC) at its EC50 concentration (10 nM) is placed in the lower wells of the ChemoTX® plate. The 5-μm (pore size) polycarbonate membrane is placed onto the plate, and 20 μL of the cell/compound mixture is transferred onto each well of the membrane. The plates are incubated at 37° C. for 45 minutes, after which the polycarbonate membranes are removed and 5 μl of the DNA-intercalating dye CyQUANT (Invitrogen, Carlsbad, CA) is added to the lower wells. The amount of fluorescence, corresponding to the number of migrated cells, is measured using a Spectrafluor Plus plate reader (TECAN, San Jose, CA).

| IC50 | SMILES |
| --- | --- |
| 1 to 10 nM | O=C1CNCCN1c1cc(-c2ccc(S(=O)(=O)N3CC[C@@H](Nc4ccc(C(F)(F)F)cn4)[C@@H](O)C3)cc2)ccn1 [Compound 88, 1-(4-(4-(((3S,4R)-3-hydroxy-4-((5-(trifluoromethyl)pyridin-2-yl)amino)piperidin-1-yl)sulfonyl)phenyl)pyridin-2-yl)piperazin-2-one] |
| < 1 nM | CN(C)[C@H]1C[C@@H](Nc2ccc(-c3ccc(S(=O)(=O)N4CC[C@@H](Nc5ccc(C(F)(F)F)cn5)[C@@H](O)C4)cc3)cn2)C1 [Compound 96] |
| 1 to 10 nM | CN1CC(N(C)c2ccc(-c3ccc(S(=O)(=O)N4CC[C@@H](Nc5ccc(C(F)(F)F)cn5)[C@@H](O)C4)cc3)cn2)C1 [Compound 98] |
| < 1 nM | CN1CC2(C1)CN(c1ccc(-c3ccc(S(=O)(=O)N4CC[C@@H](Nc5ccc(C(F)(F)F)cn5)[C@@H](O)C4)cc3)cn1)C2 [Compound 99] |
| 10 to 1000 nM | CN(C)CCN(C)c1ccc(-c2ccc(S(=O)(=O)N3CC[C@@H](Nc4ccc(C(F)(F)F)cn4)[C@@H](O)C3)cc2)cn1 [Compound 101] |
| < 1 nM | O=S(=O)(c1ccc(-c2ccc(N3CC4(CNC4)C3)nc2)cc1)N1CC[C@@H](Nc2ccc(C(F)(F)F)cn2)[C@@H](O)C1 [Compound 104] |
| 1 to 10 nM | O=S(=O)(c1ccc(-c2ccc(N3CCCCC3)nc2)cc1)N1CC[C@@H](Nc2ccc(C(F)(F)F)cn2)[C@@H](O)C1 [Compound 109] |
| 10 to 1000 nM | CN1CCN(c2cc(-c3ccc(S(=O)(=O)N4CC[C@@H](Nc5ccc(C(F)(F)F)cn5)[C@@H](O)C4)cc3)ccn2)CC1 [Compound 113] |
| < 1 nM | Cc1ccnc(C)c1-c1ccc(S(=O)(=O)N2CC[C@@H](Nc3ccc(C(F)(F)F)cn3)[C@@H](O)C2)cc1 [Compound 116] |
| < 1 nM | COc1c(-c2ccc(S(=O)(=O)N3CC[C@@H](Nc4ccc(C(F)(F)F)cn4)[C@@H](O)C3)cc2)cnc2[nH]cc(C#N)c12 [Compound 118] |
| < 1 nM | O=S(=O)(c1ccc(-c2cnc3[nH]ccc3c2F)cc1)N1CC[C@@H](Nc2ccc(C(F)(F)F)cn2)[C@@H](O)C1 [Compound 119] |
| < 1 nM | O=S(=O)(c1ccc(-c2cc(F)c3[nH]ncc3c2)cc1)N1CC[C@@H](Nc2ccc(C(F)(F)F)cn2)[C@@H](O)C1 [Compound 120] |
| < 1 nM | Cc1cc(-c2ccc(S(=O)(=O)N3CC[C@@H](Nc4ccc(C(F)(F)F)cn4)[C@@H](O)C3)cc2)cc2c(C#N)nn(C)c12 [Compound 121] |
| 1 to 10 nM | CN(C)c1cc(-c2ccc(S(=O)(=O)N3CC[C@@H](Nc4ccc(C(F)(F)F)cn4)[C@@H](O)C3)cc2)ccn1 [Compound 124] |
| < 1 nM | O=S(=O)(c1ccc(-c2ccnc(N3CCC(O)CC3)c2)cc1)N1CC[C@@H](Nc2ccc(C(F)(F)F)cn2)[C@@H](O)C1 [Compound 131] |
| < 1 nM | CC(C)(O)C1CN(c2cc(-c3ccc(S(=O)(=O)N4CC[C@@H](Nc5ccc(C(F)(F)F)cn5)[C@@H](O)C4)cc3)ccn2)C1 [Compound 132] |

More lines, now with the values behind:

| SMILES | IC50 |
| --- | --- |
| O=S(=O)(c1ccc(-c2ccc(N3CCOCC3)nc2)cc1)N1CC[C@@H](Nc2ccc(C(F)(F)F)cn2)[C@@H](O)C1 [Compound 89, (3S,4R)-1-((4-(6-morpholinopyridin-3-yl)phenyl)sulfonyl)-4-((5-(trifluoromethyl)pyridin-2-yl)amino)piperidin-3-ol] | < 1 nM |
| O=S(=O)(c1ccc(-c2ccnc(N3CCCC3)c2)cc1)N1CC[C@@H](Nc2ccc(C(F)(F)F)cn2)[C@@H](O)C1 [Compound 90, (3S,4R)-1-((4-(2-(pyrrolidin-1-yl)pyridin-4-yl)phenyl)sulfonyl)-4-((5-(trifluoromethyl)pyridin-2-yl)amino)piperidin-3-ol] | < 1 nM |
| CN(C)[C@H]1C[C@H](Nc2ccc(-c3ccc(S(=O)(=O)N4CC[C@@H](Nc5ccc(C(F)(F)F)cn5)[C@@H](O)C4)cc3)cn2)C1 [Compound 91] | 1 to 10 nM |
| CC(C)(O)C1CN(c2ccc(-c3ccc(S(=O)(=O)N4CC[C@@H](Nc5ccc(C(F)(F)F)cn5)[C@@H](O)C4)cc3)cn2)C1 [Compound 92] | < 1 nM |
| O=S(=O)(c1ccc(-c2ccc(N3CC4(COC4)C3)nc2)cc1)N1CC[C@@H](Nc2ccc(C(F)(F)F)cn2)[C@@H](O)C1 [Compound 93] | < 1 nM |
| N[C@H]1C[C@H](Nc2ccc(-c3ccc(S(=O)(=O)N4CC[C@@H](Nc5ccc(C(F)(F)F)cn5)[C@@H](O)C4)cc3)cn2)C1 [Compound 94] | < 1 nM |
| COC1CN(c2ccc(-c3ccc(S(=O)(=O)N4CC[C@@H](Nc5ccc(C(F)(F)F)cn5)[C@@H](O)C4)cc3)cn2)C1 [Compound 95] | 1 to 10 nM |
| N[C@H]1C[C@@H](Nc2ccc(-c3ccc(S(=O)(=O)N4CC[C@@H](Nc5ccc(C(F)(F)F)cn5)[C@@H](O)C4)cc3)cn2)C1 [Compound 97] | < 1 nM |
| O=S(=O)(c1ccc(-c2ccc(N3CCC3)nc2)cc1)N1CC[C@@H](Nc2ccc(C(F)(F)F)cn2)[C@@H](O)C1 [Compound 100] | < 1 nM |
| CN(c1ccc(-c2ccc(S(=O)(=O)N3CC[C@@H](Nc4ccc(C(F)(F)F)cn4)[C@@H](O)C3)cc2)cn1)C1CCC1 [Compound 102] | 1 to 10 nM |
| O=S(=O)(c1ccc(-c2ccc(NC3CCC3)nc2)cc1)N1CC[C@@H](Nc2ccc(C(F)(F)F)cn2)[C@@H](O)C1 [Compound 103] | 1 to 10 nM |
| CN(C)C1CCN(c2ccc(-c3ccc(S(=O)(=O)N4CC[C@@H](Nc5ccc(C(F)(F)F)cn5)[C@@H](O)C4)cc3)cn2)CC1 [Compound 105] | 1 to 10 nM |
| NC1CCN(c2ccc(-c3ccc(S(=O)(=O)N4CC[C@@H](Nc5ccc(C(F)(F)F)cn5)[C@@H](O)C4)cc3)cn2)CC1 [Compound 106] | < 1 nM |
| CN(C)C1CN(c2ccc(-c3ccc(S(=O)(=O)N4CC[C@@H](Nc5ccc(C(F)(F)F)cn5)[C@@H](O)C4)cc3)cn2)C1 [Compound 107] | 1 to 10 nM |
| CN1CCN(c2cncc(-c3ccc(S(=O)(=O)N4CC[C@@H](Nc5ccc(C(F)(F)F)cn5)[C@@H](O)C4)cc3)c2)CC1 [Compound 108] | < 1 nM |
| Nc1cncc(-c2ccc(S(=O)(=O)N3CC[C@@H](Nc4ccc(C(F)(F)F)cn4)[C@@H](O)C3)cc2)c1 [Compound 110] | < 1 nM |
| CN(C)c1cncc(-c2ccc(S(=O)(=O)N3CC[C@@H](Nc4ccc(C(F)(F)F)cn4)[C@@H](O)C3)cc2)c1 [Compound 111] | < 1 nM |
| CN(C)c1ccc(-c2ccc(S(=O)(=O)N3CC[C@@H](Nc4ccc(C(F)(F)F)cn4)[C@@H](O)C3)cc2)cn1 [Compound 112] | < 1 nM |
| O=S(=O)(c1ccc(-c2ccc(N3CCNCC3)nc2)cc1)N1CC[C@@H](Nc2ccc(C(F)(F)F)cn2)[C@@H](O)C1 [Compound 114] | 1 to 10 nM |
| CN1CCN(c2ccc(-c3ccc(S(=O)(=O)N4CC[C@@H](Nc5ccc(C(F)(F)F)cn5)[C@@H](O)C4)cc3)cn2)CC1 [Compound 115] | < 1 nM |
| NC(=O)c1cccc(-c2ccc(S(=O)(=O)N3CC[C@@H](Nc4ccc(C(F)(F)F)cn4)[C@@H](O)C3)cc2)c1 [Compound 117] | < 1 nM |
| COc1cc(-c2ccc(S(=O)(=O)N3CC[C@@H](Nc4ccc(C(F)(F)F)cn4)[C@@H](O)C3)cc2)cc2c(C#N)n[nH]c12 [Compound 122] | < 1 nM |
| Cc1cc(-c2ccc(S(=O)(=O)N3CC[C@@H](Nc4ccc(C(F)(F)F)cn4)[C@@H](O)C3)cc2)cc2cnn(C)c12 [Compound 123] | < 1 nM |
| CNc1cc(-c2ccc(S(=O)(=O)N3CC[C@@H](Nc4ccc(C(F)(F)F)cn4)[C@@H](O)C3)cc2)ccn1 [Compound 125] | 1 to 10 nM |
| Nc1cc(-c2ccc(S(=O)(=O)N3CC[C@@H](Nc4ccc(C(F)(F)F)cn4)[C@@H](O)C3)cc2)ccn1 [Compound 126] | 1 to 10 nM |
| O=C1C[C@H](Nc2cc(-c3ccc(S(=O)(=O)N4CC[C@@H](Nc5ccc(C(F)(F)F)cn5)[C@@H](O)C4)cc3)ccn2)CN1 [Compound 127] | 1 to 10 nM |
| N[C@H]1C[C@H](Nc2cc(-c3ccc(S(=O)(=O)N4CC[C@@H](Nc5ccc(C(F)(F)F)cn5)[C@@H](O)C4)cc3)ccn2)C1 [Compound 128] | < 1 nM |
| N[C@H]1C[C@@H](Nc2cc(-c3ccc(S(=O)(=O)N4CC[C@@H](Nc5ccc(C(F)(F)F)cn5)[C@@H](O)C4)cc3)ccn2)C1 [Compound 129] | < 1 nM |
| CN(c1cc(-c2ccc(S(=O)(=O)N3CC[C@@H](Nc4ccc(C(F)(F)F)cn4)[C@@H](O)C3)cc2)ccn1)C1CCC1 [Compound 130] | < 1 nM |
| O=S(=O)(c1ccc(-c2ccnc(N3CC[C@H](O)C3)c2)cc1)N1CC[C@@H](Nc2ccc(C(F)(F)F)cn2)[C@@H](O)C1 [Compound 133] | < 1 nM |
